Where two headings read alike, the source gives them in different places.
How the values were obtained:
Assay type in all cases: cell-based
[1] = tested on: recombinant NL4-3 virus (Renilla luciferase) in MT-2 cells; assay: HIV cell culture assay (antiviral activity, luciferase readout)
How it was run: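 Nef-deleted NL4-3 carrying Renilla luciferase, made by transfecting 293T cells, infects MT-2 cells for 4-5 days with serial compound dilutions present. Luciferase is read with a live-cell substrate. EC50 comes from the exponential median-effect equation Fa=1/[1+(ED50/drug conc.)m].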

[2] = tested on: uninfected MT2 cells; assay: Compound cytotoxicity, XTT-based colorimetric assay; conditions: day 4, XTT assay
How it was run: (§1)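 Run under the antiviral-assay protocol but without virus. Viability was read on day 4 and CC50 values were derived from the readout.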

[3] = as above; conditions: human; uninfected MT2 cells, day 4, XTT assay
How it was run: as §1

| SMILES | EC50 ([1]; MT-2 cells infected for 4-5 days with recombinant NL4-3 virus, luciferase activity, read-out: EC50) [nM] | CC50 [2] [nM] | EC50 ([1]; Renilla, NL43) [nM] | CC50 at 4 day [3] [nM] |
| --- | --- | --- | --- | --- |
| CS(=O)(=O)Nc1nn(CC(F)F)c2c(-n3c(C(Cc4cc(F)cc(F)c4)NC(=O)Cn4nc(C(F)(F)F)c5c4C(F)(F)C4CC54)nc4nc(-c5ccccc5F)ccc4c3=O)ccc(Cl)c12 [Example 32, N—((S)-1-((3P)-3-(4-chloro-1-(2,2-difluoroethyl)-3-(methylsulfonamido)-1H-indazol-7-yl)-7-(2-fluorophenyl)-4-oxo-3,4-dihydropyrido[2,3-d]pyrimidin-2-yl)-2-(3,5-difluorophenyl)ethyl)-2-((3bS,4aR)-5,5-difluoro-3-(trifluoromethyl)-3b,4,4a,5-tetrahydro-1H-cyclopropa[3,4]cyclopenta[1,2-c]pyrazol-1-yl)acetamide] | 0.077 | > 500 |  |  |
| CS(=O)(=O)Nc1nn(CC(F)F)c2c(-n3c([C@H](Cc4cc(F)cc(F)c4)NC(=O)Cn4ccc(C5CC5)n4)nc4nc(-c5ccccc5F)ccc4c3=O)ccc(Cl)c12 (atropisomer, axis not shown; (P)) [Example 33, (S)—N-(1-((3P)-3-(4-chloro-1-(2,2-difluoroethyl)-3-(methylsulfonamido)-1H-indazol-7-yl)-7-(2-fluorophenyl)-4-oxo-3,4-dihydropyrido[2,3-d]pyrimidin-2-yl)-2-(3,5-difluorophenyl)ethyl)-2-(3-cyclopropyl-1H-pyrazol-1-yl)acetamide] |  |  | 0.15 | > 500 |
| COc1nc2nc([C@H](Cc3cc(F)cc(F)c3)NC(=O)Cn3nc(C(F)F)c4c3C(F)(F)[C@@H]3C[C@H]43)n(-c3ccc(Cl)c4c(NS(C)(=O)=O)nn(C)c34)c(=O)c2cc1-c1ccccc1F (atropisomer, axis not shown; (P)) [Example 2, N—((S)-1-((3P)-3-(4-chloro-1-methyl-3-(methylsulfonamido)-1H-indazol-7-yl)-6-(2-fluorophenyl)-7-methoxy-4-oxo-3,4-dihydropyrido[2,3-d]pyrimidin-2-yl)-2-(3,5-difluorophenyl)ethyl)-2-((3bS,4aR)-3-(difluoromethyl)-5,5-difluoro-3b,4,4a,5-tetrahydro-1H-cyclopropa[3,4]cyclopenta[1,2-c]pyrazol-1-yl)acetamide] |  |  | 0.25 | > 1000 |
| COc1c(F)ccc(-c2ccc3c(=O)n(-c4ccc(Cl)c5c(NS(C)(=O)=O)nn(C)c45)c([C@H](Cc4cc(F)cc(F)c4)NC(=O)Cn4nc(C(F)F)c5c4C(F)(F)[C@@H]4C[C@H]54)nc3n2)c1F (atropisomer, axis not shown; (P)) [Example 26, N—((S)-1-((3P)-3-(4-chloro-1-methyl-3-(methylsulfonamido)-1H-indazol-7-yl)-7-(2,4-difluoro-3-methoxyphenyl)-4-oxo-3,4-dihydropyrido[2,3-d]pyrimidin-2-yl)-2-(3,5-difluorophenyl)ethyl)-2-((3bS,4aR)-3-(difluoromethyl)-5,5-difluoro-3b,4,4a,5-tetrahydro-1H-cyclopropa[3,4]cyclopenta[1,2-c]pyrazol-1-yl)acetamide] |  |  | 0.062 | > 100 |
| Cn1nc(NS(C)(=O)=O)c2c(Cl)ccc(-n3c([C@H](Cc4cc(F)cc(F)c4)NC(=O)Cn4nc(C(F)F)c5c4C(F)(F)[C@@H]4C[C@H]54)nc4nc(-c5c(F)cc(F)cc5F)ccc4c3=O)c21 (atropisomer, axis not shown; (P)) [Example 28, N—((S)-1-((3P)-3-(4-chloro-1-methyl-3-(methylsulfonamido)-1H-indazol-7-yl)-4-oxo-7-(2,4,6-trifluorophenyl)-3,4-dihydropyrido[2,3-d]pyrimidin-2-yl)-2-(3,5-difluorophenyl)ethyl)-2-((3bS,4aR)-3-(difluoromethyl)-5,5-difluoro-3b,4,4a,5-tetrahydro-1H-cyclopropa[3,4]cyclopenta[1,2-c]pyrazol-1-yl)acetamide] |  |  | 0.032 | > 100 |
| Cn1nc(NS(C)(=O)=O)c2c(Cl)ccc(-n3c([C@H](Cc4cc(F)cc(F)c4)NC(=O)Cn4nc(C(F)F)c5c4C(F)(F)[C@@H]4C[C@H]54)nc4nc(-c5ccc(Cl)cc5F)ccc4c3=O)c21 (atropisomer, axis not shown; (P)) [Example 8, N—((S)-1-((3P)-3-(4-chloro-1-methyl-3-(methylsulfonamido)-1H-indazol-7-yl)-7-(4-chloro-2-fluorophenyl)-4-oxo-3,4-dihydropyrido[2,3-d]pyrimidin-2-yl)-2-(3,5-difluorophenyl)ethyl)-2-((3bS,4aR)-3-(difluoromethyl)-5,5-difluoro-3b,4,4a,5-tetrahydro-1H-cyclopropa[3,4]cyclopenta[1,2-c]pyrazol-1-yl)acetamide] |  |  | 0.067 | > 20000 |

Reference: patent publication US20220089598A1, “INHIBITORS OF HUMAN IMMUNODEFICIENCY VIRUS REPLICATION” (VIIV HEALTHCARE UK (No. 5) LIMITED, priority 2018, published 2022)
